In paper PMC5386672, “Structure-guided design of purine-based probes for selective Nek2 inhibition” (Oncotarget, 2016):
“Also recorded” adds a separate entry of the source.

Tests used:
Nek2 [1] = conditions: read-out: Nek2 inhibitory activity IC50; cited from earlier work
Nek2 [2] = target: T1, Nek2 (Homo sapiens, UniProt P51955); experiment: Nek2 Caliper kinase inhibition assay; format: biochemical; conditions: 30 μM ATP; for inhibition at 50 µM: @ 50 μM compound
T1 construct: purchased Invitrogen
T1 sequence (P51955 1-445): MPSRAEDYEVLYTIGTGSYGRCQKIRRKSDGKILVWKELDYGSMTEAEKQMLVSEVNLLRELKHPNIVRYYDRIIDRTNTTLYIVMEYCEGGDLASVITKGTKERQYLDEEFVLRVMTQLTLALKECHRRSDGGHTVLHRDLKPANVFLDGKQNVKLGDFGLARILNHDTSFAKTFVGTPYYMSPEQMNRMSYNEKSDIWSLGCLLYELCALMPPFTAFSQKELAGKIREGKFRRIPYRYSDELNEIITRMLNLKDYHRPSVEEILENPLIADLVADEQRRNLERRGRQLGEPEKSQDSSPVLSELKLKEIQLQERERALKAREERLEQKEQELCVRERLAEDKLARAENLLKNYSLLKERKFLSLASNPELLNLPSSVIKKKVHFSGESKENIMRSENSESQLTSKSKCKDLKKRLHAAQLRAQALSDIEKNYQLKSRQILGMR

CDK2 = CDK2 (Homo sapiens, UniProt P24941); experiment: CDK2 kinase inhibition assay; format: biochemical; conditions: 12.5 μM ATP
Nek2 [3] = target: T1, Nek2; experiment: Effect of pre-incubation of Nek2 with inhibitor on IC50 (time-dependence); format: biochemical
Description: www.impactjournals.com/oncotarget/ Oncotarget, Supplementary Materials 2016
Time after inhibitor addition
(1 picture or pasted object on this page, not shown here)

Plk1 = Plk1 (Homo sapiens, UniProt P53350); experiment: Separate counter-screen against Plk1; format: biochemical
Description: To assess the broader kinase selectivity of this series of 6-(dialkylamino)vinyl-purines, the diethylamino derivative 71 was chosen for wider screening against 24 kinases at 2 μM inhibitor concentration (Figure 5 – method as in reference 12).

Nek2 [4] = target: T1, Nek2; experiment: Nek2 inhibition reversibility assay (rapid dilution); format: biochemical; conditions: 30 min pre-incubation at ten-fold IC50, rapid 100-fold dilution
Description: The reversible nature of Nek2 inhibition by enamine 70 was measured using a kinase inhibition-reversibility assay. […] This solution in reaction buffer was pre-incubated with inhibitor 70 at a concentration ten-fold its IC50, calculated to afford approximately 91% inhibition of Nek2. […] Following rapid 1:100 dilution, a reaction progress curve was generated by monitoring for levels of the phosphorylated substrate as described in reference 16 using the Caliper EZ Reader II instrument at different times throughout the duration of the reaction.

[5] = HPLC analysis of enamine stability in human plasma; format: in vitro ADME; conditions: over a period of 24 hours
[6] = HPLC analysis of enamine stability in assay media, DMSO and pH buffers; format: physicochemical
Description: To determine whether the enamines were hydrolysed under the assay conditions, the stability of representative enamine derivative 72 was assessed in a range of assay media and pH buffers. Stock solutions of 72 in each of the various media were prepared and aliquots were extracted from each solution at various time points and subjected to HPLC analysis to measure the remaining intact enamine (Figure 9).
Solutions of 10 μM 72 were prepared in100% MEM media, 100% RPMI media, 10% (v/v) FCS in MEM, 10% BSA in water (v/v), 10 % FCS (v/v) in water, or 10 % (v/v) boiled FCS in water, DMSO and phosphate buffered water at pH 2, pH 7 and pH 10 by adding 10 μL of the 1 mM working stock of 72 in MeCN to 990 μL of each medium. A 50 μL aliquot was removed directly and immediately extracted as described below. At 5, 10, 15, 30, 60, 90, 120, 180, 240, 360 and 1440 minutes after addition of the drug further aliquots of 50 μL were taken and extracted as below. At each time point the 50 μL of the test solution was added to 50 μL of acetonitrile (MeCN). Samples were mixed for 10 seconds on a vortex mixer and centrifuged at 15700 rcf for 5 minutes in a microcentrifuge. The supernatant solution from each sample was placed into an HPLC vial for analysis. Samples were analysed by reverse phase HPLC with PDA detection.

[7] = 10 min after inhibitor addition
[8] = 15 min after inhibitor addition
[9] = 30 min after inhibitor addition
[10] = 60 min after inhibitor addition

Chain of Plk1 (P53350 whole entry): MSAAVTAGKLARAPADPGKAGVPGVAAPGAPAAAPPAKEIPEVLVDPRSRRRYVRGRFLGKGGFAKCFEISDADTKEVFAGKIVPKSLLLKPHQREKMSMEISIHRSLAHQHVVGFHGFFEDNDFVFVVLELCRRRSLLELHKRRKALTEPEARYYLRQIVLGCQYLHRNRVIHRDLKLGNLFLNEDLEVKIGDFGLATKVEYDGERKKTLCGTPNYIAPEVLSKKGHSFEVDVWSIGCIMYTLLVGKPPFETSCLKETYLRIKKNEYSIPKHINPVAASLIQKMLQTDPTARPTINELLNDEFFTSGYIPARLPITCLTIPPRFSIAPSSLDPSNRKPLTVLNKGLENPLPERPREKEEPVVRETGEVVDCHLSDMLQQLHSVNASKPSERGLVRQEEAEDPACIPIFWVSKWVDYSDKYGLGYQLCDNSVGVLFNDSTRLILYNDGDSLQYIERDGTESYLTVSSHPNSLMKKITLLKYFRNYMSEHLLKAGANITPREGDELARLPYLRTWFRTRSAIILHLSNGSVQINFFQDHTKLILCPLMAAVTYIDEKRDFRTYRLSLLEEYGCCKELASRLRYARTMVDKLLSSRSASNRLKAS

## C[C@@]12c3ccc4c(c3C(=O)c3occ(c31)C(=O)C[C@H]2O)CCC4=O [Compound 4]
Nek2 [1]
  IC50: 1.9 µM

## CC(C)CNC(=O)Cc1cccc(Nc2nc(OCC3CCCCC3)c3nc[nH]c3n2)c1 [Compound 34, 2-[3-(6-Cyclohexylmethoxy-9H-purin-2-anilino)]-N-isobutylacetamide]
Nek2 [2]
  inhibition at 50 µM: 79%
CDK2
  IC50: 0.94 µM
other
  melting point: 144 to 145 °C

## O=C(Cc1cccc(Nc2nc(OCC3CCCCC3)c3nc[nH]c3n2)c1)NC1CCCC1 [Compound 35]
Nek2 [2]; Caliper assay
  IC50: 4.1 µM
CDK2
  IC50: 1.1 µM
other
  melting point: 228 to 229 °C

## O=C(Cc1cccc(Nc2nc(OCC3CCCCC3)c3nc[nH]c3n2)c1)NC1CCCCC1 [Compound 36]
Nek2 [2]; Caliper assay
  IC50: 8.4 µM
CDK2
  IC50: 2.1 µM
other
  melting point: 226 to 227 °C

## CN(C(=O)Cc1cccc(Nc2nc(OCC3CCCCC3)c3nc[nH]c3n2)c1)C1CCCCC1 [Compound 37]
Nek2 [2]
  inhibition at 50 µM: 26%
CDK2
  IC50: 1.6 µM
other
  melting point: 134 to 135 °C

## CC(C)N(C(=O)Cc1cccc(Nc2nc(OCC3CCCCC3)c3nc[nH]c3n2)c1)C(C)C [Compound 38]
Nek2 [2]; Caliper assay
  IC50: 21 µM
CDK2
  IC50: 3.2 µM
other
  melting point: 126 to 127 °C

## CCCNC(=O)Cc1cccc(Nc2nc(OCC3CCCCC3)c3nc[nH]c3n2)c1 [Compound 39]
Nek2 [2]
  inhibition at 50 µM: 82%
CDK2
  IC50: 0.74 µM
other
  melting point: 141 to 142 °C (dec.)

## O=C(Cc1cccc(Nc2nc(OCC3CCCCC3)c3nc[nH]c3n2)c1)NCCCO [Compound 40]
Nek2 [2]; Caliper assay
  IC50: 1.3 µM
CDK2
  IC50: 0.8 µM
other
  melting point: 132 to 133 °C

## O=C(Cc1cccc(Nc2nc(OCC3CCCCC3)c3nc[nH]c3n2)c1)NCCCn1ccnc1 [Compound 41, 2-[3-(6-Cyclohexylmethoxy-9H-purin-2-ylamino)phenyl]-N-(3-imidazol-1-yl-propyl)acetamide]
Nek2 [2]; Caliper assay
  IC50: 6.13 µM
CDK2
  IC50: 1.6 µM
other
  melting point: 192 to 193 °C

## CN(C)CCNC(=O)Cc1cccc(Nc2nc(OCC3CCCCC3)c3nc[nH]c3n2)c1 [Compound 43, 2-[3-(6-Cyclohexylmethoxy-9H-purin-2-ylamino)phenyl]-N-(2-dimethylaminoethyl)acetamide]
Nek2 [2]; Caliper assay
  IC50: 1 µM
CDK2
  IC50: 0.59 µM
other
  melting point: 161 to 162 °C

## CN(C)CCCCNC(=O)Cc1cccc(Nc2nc(OCC3CCCCC3)c3nc[nH]c3n2)c1 [Compound 45, 2-[3-(6-Cyclohexylmethoxy-9H-purin-2-ylamino)phenyl]-N-(4-dimethylaminobutyl)acetamide]
Nek2 [2]; Caliper assay
  IC50: 0.7 µM
CDK2
  IC50: 0.86 µM
other
  melting point: 125 to 127 °C

## CN1CCN(CCCNC(=O)Cc2cccc(Nc3nc(OCC4CCCCC4)c4nc[nH]c4n3)c2)CC1 [Compound 46, 2-[3-(6-Cyclohexylmethoxy-9H-purin-2-ylamino)phenyl]-N-[3-(4-methylpiperazin-1-yl)propyl]acetamide]
Nek2 [2]; Caliper assay
  IC50: 3.6 µM
CDK2
  IC50: 2.4 µM
other
  melting point: 157 to 158 °C

## O=C(Cc1cccc(Nc2nc(OCC3CCCCC3)c3nc[nH]c3n2)c1)NCCCc1ccccc1 [Compound 47, 2-[3-(6-Cyclohexylmethoxy-9H-purin-2-ylamino)phenyl]-N-(3-phenylpropyl)acetamide]
Nek2 [2]; Caliper assay
  Nek2 IC50: Inactive
CDK2
  IC50: 10 µM
other
  melting point: 154 to 155 °C

## O=S(=O)(Cc1cccc(Nc2nc(OCC3CCCCC3)c3nc[nH]c3n2)c1)N1CCNCC1 [Compound 50, 1-(3-(6-Cyclohexylmethoxy-9H-purin-2-ylamino)phenylmethanesulfonyl)piperazine]
Nek2 [2]; Caliper assay
  IC50: 2.6 µM
CDK2
  IC50: 0.45 µM
other
  melting point: 127 to 128 °C

## CN(C)CCCNS(=O)(=O)Cc1cccc(Nc2nc(OCC3CCCCC3)c3nc[nH]c3n2)c1 [Compound 51, 1-[3-(6-Cyclohexylmethoxy-9H-purin-2-ylamino)phenyl]-N-(3-dimethylaminopropyl)methanesulfonamide]
Nek2 [2]; Caliper assay
  IC50: 1.42 µM
CDK2
  IC50: 0.53 µM
other
  melting point: 167 to 168 °C

## COc1ccc(CNS(=O)(=O)Cc2cccc(Nc3nc(OCC4CCCCC4)c4nc[nH]c4n3)c2)cc1 [Compound 52, 1-[3-(6-Cyclohexylmethoxy-9H-purin-2-ylamino)phenyl]-N-(4-methoxybenzyl)methanesulfonamide]
Nek2 [2]; @ 100 μM compound
  inhibition at 100 µM: 38%
CDK2
  IC50: 3 µM
other
  melting point: 118 to 119 °C

## NS(=O)(=O)Cc1cccc(Nc2nc(OCC3CCCCC3)c3nc[nH]c3n2)c1 [Compound 53, [3-(6-Cyclohexylmethoxy-9H-purin-2-ylamino)phenyl]methanesulfonamide]
Nek2 [2]
  inhibition at 50 µM: 81%
CDK2
  IC50: 0.24 µM
other
  melting point: 134 to 135 °C

## CCOc1nc(Nc2cccc(CC(=O)NCCCn3ccnc3)c2)nc2[nH]cnc12 [Compound 62, 2-[3-(6-Ethoxy-9H-purin-2-ylamino)-phenyl]-N-(3-imidazol-1-ylpropyl)acetamide]
Nek2 [2]; Caliper assay
  IC50: 2.8 µM
CDK2
  IC50: 5.2 µM
other
  melting point: 176 to 177 °C

## O=C(NCCN1CCCCC1)Nc1ccc(Nc2ncc3nc[nH]c3n2)cc1 [Compound 65, 1-(4-((9H-purin-2-yl)amino)phenyl)-3-(2-(piperidin-1-yl)ethyl)urea]
Nek2 [2]; Caliper assay
  IC50: 4.5 µM
CDK2; @ 100 μM compound
  inhibition at 100 µM: 30%
other
  melting point: 96 to 98 °C

## O=C(Cc1cccc(Nc2ncc3nc[nH]c3n2)c1)NCCCn1ccnc1 [Compound 67, N-(3-Imidazol-1-yl-propyl)-2-[3-(9H-purin-2-ylamino)phenyl]acetamide]
Nek2 [2]; Caliper assay
  IC50: 5.9 µM
CDK2
  IC50: > 100 µM
other
  melting point: 121 to 122 °C

## C(=C\N1CCCC1)/c1nc(Nc2ccccc2)nc2[nH]cnc12 [Compound 69, (E)-N-Phenyl-6-(2-(pyrrolidin-1-yl)vinyl)-9H-purin-2-amine]
Nek2 [2]; Caliper assay
  IC50: 0.34 µM
CDK2
  IC50: 5.8 µM
other
  melting point: 138 to 140 °C

## CN(C)/C=C/c1nc(Nc2ccccc2)nc2[nH]cnc12 [Compound 70, (E)-6-(2-(Dimethylamino)vinyl)-N-phenyl-9H-purin-2-amine]
Nek2 [2]; Caliper assay
  IC50: 0.77 µM
Nek2 [3]; 2 min after inhibitor addition
  Hill slope: 0.73
  IC50: 1.37 µM
Nek2 [3]; 5 min after inhibitor addition
  Hill slope: 0.59
  IC50: 0.84 µM
Nek2 [3]; [7]
  Hill slope: 0.79
  IC50: 1.58 µM
Nek2 [3]; [8]
  Hill slope: 0.71
  IC50: 1.33 µM
Nek2 [3]; [9]
  Hill slope: 0.72
  IC50: 1.06 µM
Nek2 [3]; [10]
  Hill slope: 0.85
  IC50: 1.47 µM
Nek2 [3]; pre-incubation 2-60 min
  time-dependence of Nek2 inhibition: not to exhibit time-dependent Nek2 inhibition kinetics
Plk1
  inhibition at 10 µM: 41%
Nek2 [4]
  reversibility of Nek2 inhibition: binds reversibly; also recorded: not an irreversible inhibitor
CDK2
  IC50: 3 µM
other
  melting point: 129 to 131 °C

## C(=C\N1CCCCCC1)/c1nc(Nc2ccccc2)nc2[nH]cnc12 [Compound 72, (E)-6-(2-(Azepan-1-yl)vinyl)-N-phenyl-9H-purin-2-amine]
[5]
  stability in human plasma: relatively stable
[6]; DMSO solutions, for over 24 h
  stability in DMSO: stable
[6]; MEM and RPMI media, 10 μM, HPLC
  stability in standard assay media: degraded at a similar rate
[6]; pH 2.2
  stability at acidic pH: relatively stable
[6]; pH 7
  stability at neutral pH: rapidly degraded
[6]; pH 10.4
  stability at basic pH: rapidly degraded

## CN(C)[C@@H]1CCN(/C=C/c2nc(Nc3ccccc3)nc3[nH]cnc23)C1 [Compound 73, (R, E)-6-(2-(3-(Dimethylamino)pyrrolidin-1-yl)vinyl)-N-phenyl-9H-purin-2-amine]
Nek2 [2]; Caliper assay
  IC50: 3 µM
CDK2
  IC50: 6.9 µM
other
  melting point: 136 to 138 °C
